This is an account of results in publication PMC9579011, “Coprinopsis cinerea dioxygenase is an oxygenase forming 10(S)-hydroperoxide of linoleic acid, essential for mushroom alcohol, 1-octen-3-ol, synthesis” (The Journal of Biological Chemistry, 2022).

The target of one test is T1, CcDOX1 (Coprinopsis cinerea, UniProt A8N8W9).
T1 construct: gene CC1G_00844; full length, 1066 aa, C-terminal EGFP fusion, expressed in BmN4 (Bombyx mori) cells, immunopurified on anti-GFP beads
T1 sequence (A8N8W9 1-1066): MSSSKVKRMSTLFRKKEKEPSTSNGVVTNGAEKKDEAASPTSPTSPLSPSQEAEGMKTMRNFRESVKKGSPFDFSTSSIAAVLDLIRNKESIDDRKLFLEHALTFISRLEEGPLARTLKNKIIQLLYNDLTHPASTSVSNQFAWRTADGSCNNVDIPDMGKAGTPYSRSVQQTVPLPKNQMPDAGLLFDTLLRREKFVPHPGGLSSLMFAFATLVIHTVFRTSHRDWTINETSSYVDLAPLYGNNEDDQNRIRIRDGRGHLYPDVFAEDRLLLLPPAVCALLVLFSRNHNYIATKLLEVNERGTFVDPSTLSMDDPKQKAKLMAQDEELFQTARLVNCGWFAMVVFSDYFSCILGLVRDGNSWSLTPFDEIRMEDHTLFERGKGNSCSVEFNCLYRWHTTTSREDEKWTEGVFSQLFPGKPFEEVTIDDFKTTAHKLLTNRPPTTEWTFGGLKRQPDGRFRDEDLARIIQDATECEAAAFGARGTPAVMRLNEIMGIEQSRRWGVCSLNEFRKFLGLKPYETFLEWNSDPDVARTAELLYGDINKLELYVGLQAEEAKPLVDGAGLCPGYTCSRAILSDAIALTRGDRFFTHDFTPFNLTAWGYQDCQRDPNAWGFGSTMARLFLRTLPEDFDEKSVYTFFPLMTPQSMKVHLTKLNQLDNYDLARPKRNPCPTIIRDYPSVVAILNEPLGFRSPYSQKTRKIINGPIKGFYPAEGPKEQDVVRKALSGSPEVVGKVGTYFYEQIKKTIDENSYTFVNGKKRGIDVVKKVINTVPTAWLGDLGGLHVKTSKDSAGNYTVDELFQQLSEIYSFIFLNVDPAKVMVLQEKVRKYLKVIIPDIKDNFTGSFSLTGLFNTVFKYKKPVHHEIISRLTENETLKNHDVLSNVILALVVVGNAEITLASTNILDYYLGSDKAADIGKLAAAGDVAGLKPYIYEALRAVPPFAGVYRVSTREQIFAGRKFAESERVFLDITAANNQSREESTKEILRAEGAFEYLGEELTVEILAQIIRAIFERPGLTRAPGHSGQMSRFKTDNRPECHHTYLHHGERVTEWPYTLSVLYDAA
The test is described as follows: LC-MS/MS product peak area, Hill fit of [S]-v plot. It counts as biochemical. The note with it: Hill coefficient n = 1.9 ± 0.27; 10-500 μM substrate, 30 min on ice; bead-bound immunopurified EGFP fusion; lysis buffer pH 7.4.

For another test, the target named is T2, CcDOX2 (Coprinopsis cinerea, UniProt A8NN01).
T2 construct: gene CC1G_09914; full length, 1118 aa, C-terminal EGFP fusion, expressed in BmN4 (Bombyx mori) cells, immunopurified with anti-GFP antibody
T2 sequence (A8NN01 1-1118): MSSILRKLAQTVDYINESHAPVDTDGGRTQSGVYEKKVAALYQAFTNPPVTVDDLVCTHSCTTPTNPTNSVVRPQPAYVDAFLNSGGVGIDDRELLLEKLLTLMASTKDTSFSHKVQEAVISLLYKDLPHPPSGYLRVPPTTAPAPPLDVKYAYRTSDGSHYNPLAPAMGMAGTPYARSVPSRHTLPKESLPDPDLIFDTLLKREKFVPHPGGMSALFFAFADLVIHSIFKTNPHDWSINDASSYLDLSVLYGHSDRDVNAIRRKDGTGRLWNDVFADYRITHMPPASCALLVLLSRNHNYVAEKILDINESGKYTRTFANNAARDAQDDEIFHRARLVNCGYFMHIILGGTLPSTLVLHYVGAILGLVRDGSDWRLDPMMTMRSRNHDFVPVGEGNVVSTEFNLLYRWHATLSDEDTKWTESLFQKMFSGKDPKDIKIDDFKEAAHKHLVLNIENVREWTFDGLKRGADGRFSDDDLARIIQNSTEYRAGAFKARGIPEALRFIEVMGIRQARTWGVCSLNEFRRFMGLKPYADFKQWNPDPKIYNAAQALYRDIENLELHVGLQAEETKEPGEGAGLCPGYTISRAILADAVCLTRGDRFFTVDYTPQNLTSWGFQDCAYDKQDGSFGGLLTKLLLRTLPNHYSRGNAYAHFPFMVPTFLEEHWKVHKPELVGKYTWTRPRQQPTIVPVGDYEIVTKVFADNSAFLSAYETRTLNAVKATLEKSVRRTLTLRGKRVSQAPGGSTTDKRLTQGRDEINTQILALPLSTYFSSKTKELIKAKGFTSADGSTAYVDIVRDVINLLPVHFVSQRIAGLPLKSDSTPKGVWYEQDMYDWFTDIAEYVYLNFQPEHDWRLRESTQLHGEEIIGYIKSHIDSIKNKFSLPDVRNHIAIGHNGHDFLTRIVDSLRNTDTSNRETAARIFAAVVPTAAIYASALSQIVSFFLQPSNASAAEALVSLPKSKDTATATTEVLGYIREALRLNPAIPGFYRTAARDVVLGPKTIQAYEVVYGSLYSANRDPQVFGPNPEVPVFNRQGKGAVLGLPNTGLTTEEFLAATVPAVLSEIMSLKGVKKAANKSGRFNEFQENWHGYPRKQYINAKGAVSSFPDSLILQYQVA
The test is described as follows: LC-MS/MS of products after triphenylphosphine reduction. It counts as biochemical. The note with it: immunopurified EGFP fusion; 8-hydroperoxide product (tentative).

Turning to `CCCCC/C=C\C/C=C\CCCCCCCC(=O)O` [linoleic acid], the KA at CcDOX1 came to 78 ± 9.74 µM. Moreover, the “LC-MS/MS of products after triphenylphosphine reduction” value at CcDOX2 is “Linoleic acid was added to the purified recombinant CcDOX1 and CcDOX2”.
